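48-hour exposure; five concentrations; linearly interpolated endpoints. At the GI50, growth is halved. TGI is the concentration that stops growth completely.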
System: MDA-MB-468 breast
Assay: inhibition of tumour cell growth, NCI panel, 48 h

Row | Compound | GI50 | TGI
1 | CCCC(=O)Oc1ccc(/C(=C(\C)c2ccc(Cl)cc2)c2ccc(OCCN(CC)CC)cc2)cc1 | 1.53 µM | 3.67 µM
2 | CCN(Cc1ccc(Cl)c(Cl)c1)c1ccc2nc(N)nc(N)c2c1C | 0.0138 µM | 1.3 µM
3 | O=C(CSc1nc2ccccc2c(=O)n1-c1ccc(Cl)cc1)N/N=C/c1ccc(Oc2ccc(Cl)cc2)cc1 | 2.08 µM | 5.08 µM
4 | O=C1/C(=C/c2ccc(F)cc2)COc2ccc(O)c(O)c21 | 2.28 µM | 5.6 µM
5 | COc1ccc(-n2nc(C)c3c(Nc4ccc(NC(=O)Nc5cccc(C(F)(F)F)c5)cc4)ncnc32)cc1 | 2.02 µM | 4.9 µM
6 | NC(CSC(c1ccccc1)(c1ccccc1)c1ccccc1)C(=O)O (stereo not given) | 0.406 µM | 6.24 µM
7 | CN(C)S(=O)(=O)c1cccc(C(=O)Nc2nc(-c3ccc(F)c(F)c3)cs2)c1 | 3.79 µM | 97.5 µM
8 | COc1ccc(Cn2cc3c(c2-c2ccccc2)CCc2cnoc2-3)cc1 | 0.0795 µM | > 100 µM
9 | COc1cc2c(O[C@@H]3OC[C@H](OC(C)=O)[C@H](OC(C)=O)[C@H]3O)c3c(c(-c4ccc5c(c4)OCO5)c2cc1OC)C(=O)OC3 | 0.731 µM | > 10 µM
10 | CN1CCN(C2=C(Cl)C(=O)c3ccccc3C2=O)CC1 | 1.11 µM | 2.61 µM
11 | Nc1c(C(=O)c2cccc(-c3cccnc3)c2)cnn1-c1ccc(F)cc1 | > 25 µM | > 25 µM
12 | C[C@H]1C[C@@H](n2c(Nc3ccc(OC(F)(F)F)cc3)nc3cc(CCC(=O)O)ccc32)CC(C)(C)C1 | 15.7 µM | 38.6 µM
13 | Cc1ccc(S(=O)(=O)c2nc(-c3ccc(F)cc3)oc2S(C)(=O)=O)cc1 | 2.5 µM | > 19.8 µM
14 | CNC(=O)c1c(NC(=O)c2ccccc2C(F)(F)F)sc2c1CCC(=O)C2 | 1.81 µM | 5.36 µM
15 | CN(C)Cc1ccc(NC(=O)c2cncc(C#Cc3cnc(N)c4ncccc34)c2)cc1C(F)(F)F | 1.56 µM | 3.21 µM
16 | Cc1cccc(N2CCN(C3=C(Cl)C(=O)c4ncccc4C3=O)CC2)c1 | 1.54 µM | 3.08 µM
17 | COc1ccc(/C=C\c2cc(OC)c(OC)c(OC)c2)cc1NC(=O)/C=C/c1ccc(OC)c(OC)c1 | 1.9 µM | > 100 µM
18 | O=[N+]([O-])c1ccc(Sc2cccc[n+]2[O-])c2nonc12 | 5.78 µM | 20.7 µM
19 | Nc1[nH]nc(Nc2ccccc2)c1-c1nc2ccccc2s1 | 2.23 µM | 5.98 µM
20 | Cc1cc(NC(=O)NCCOc2ccc(N3C(N)=NC(N)=NC3(C)C)cc2Cl)ccc1S(=O)(=O)F | 1.46 µM | 27.6 µM
